Reference: ChEMBL document CHEMBL3885861, “Open TG-GATES”

Organism: Rattus norvegicus
Test: Open TG-GATES - Regimen: Daily Repeat
Format: toxicity, organism-based, Sprague-Dawley
Parameters: regimen Daily Repeat, gender Male, age 6 weeks
Details: in vivo, po, route gavage; for APTT / Bas / Eos / Fbg / Hb / Ht / Lym / MCH / MCHC / MCV / Mono / Neu / PT / Plat / RBC / Ret / WBC: tissue Blood; for KIDNEY_L / KIDNEY_R / KIDNEY_TOTAL: tissue Kidney; for LIVER: tissue Liver; for A/G / ALP / ALT / AST / BUN / CRE / Ca / Cl / DBIL / GLC / IP / K / LDH / Na / PL / RALB / TBIL / TC / TG / TP / gamma-GTP: tissue Plasma
[1] = 0 mg/kg, 72 h, dose level Control, time 3 day
[2] = 0 mg/kg, […], dose level Control, time 7 day
[3] = 0 mg/kg, […], dose level Control, time 14 day
[4] = 0 mg/kg, […], dose level Control, time 28 day
[5] = 50 mg/kg, 72 h, dose level Low, time 3 day
[6] = 50 mg/kg, […], dose level Low, time 7 day
[7] = 50 mg/kg, […], dose level Low, time 14 day
[8] = 50 mg/kg, […], dose level Low, time 28 day

## CN1C(=O)OC(C)(C)C1=O [TRIMETHADIONE]
[1]
  TERMINAL_BW: 243.9 g
  APTT: 17 s
  Bas: 0%
  Eos: 0.8%
  Fbg: 265 mg/dL
  Hb: 13.7 g/dL
  Ht: 41%
  Lym: 79.8%
  MCH: 21.4 pg
  MCHC: 33.4%
  MCV: 64.2 fL
  Mono: 2.6%
  Neu: 16.4%
  PT: 13.3 s
  Plat: 131 x10_4/uL
  RBC: 639.2 x10_4/ul
  Ret: 7.2%
  WBC: 85.5 x10_2/uL
  KIDNEY_L: 1 g
  KIDNEY_R: 1 g
  KIDNEY_TOTAL: 2 g
  LIVER: 11.2 g
  A/G: 0.8
  ALP: 1967.6 IU/L
  ALT: 47.4 IU/L
  AST: 78 IU/L
  BUN: 15 mg/dL
  CRE: 0.2 mg/dL
  Ca: 11.2 mg/dL
  Cl: 106 meq/L
  DBIL: 0.006 mg/dL
  GLC: 180.6 mg/dL
  IP: 7 mg/dL
  K: 4.6 meq/L
  LDH: 109.4 IU/L
  Na: 141.6 meq/L
  PL: 166.6 mg/dL
  RALB: 2.6 g/dL
  TBIL: 0.05 mg/dL
  TC: 83.6 mg/dL
  TG: 141.8 mg/dL
  TP: 5.7 g/dL
  gamma-GTP: 1 IU/L
[2]
  TERMINAL_BW: 282.3 g
  APTT: 17.7 s
  Bas: 0.6%
  Eos: 1%
  Fbg: 263.8 mg/dL
  Hb: 13.8 g/dL
  Ht: 41%
  Lym: 79.4%
  MCH: 21.4 pg
  MCHC: 33.6%
  MCV: 63.9 fL
  Mono: 2.4%
  Neu: 16.4%
  PT: 13.9 s
  Plat: 123.3 x10_4/uL
  RBC: 641.8 x10_4/ul
  Ret: 5.8%
  WBC: 89.3 x10_2/uL
  KIDNEY_L: 1.1 g
  KIDNEY_R: 1.1 g
  KIDNEY_TOTAL: 2.3 g
  LIVER: 12.5 g
  A/G: 0.8
  ALP: 1722.8 IU/L
  ALT: 38.2 IU/L
  AST: 67.4 IU/L
  BUN: 16.8 mg/dL
  CRE: 0.2 mg/dL
  Ca: 11 mg/dL
  Cl: 105.2 meq/L
  DBIL: 0.01 mg/dL
  GLC: 191.8 mg/dL
  IP: 6.9 mg/dL
  K: 4.1 meq/L
  LDH: 107.8 IU/L
  Na: 144 meq/L
  PL: 165.4 mg/dL
  RALB: 2.6 g/dL
  TBIL: 0.052 mg/dL
  TC: 85.6 mg/dL
  TG: 109 mg/dL
  TP: 5.8 g/dL
  gamma-GTP: 1 IU/L
[3]
  TERMINAL_BW: 333.6 g
  APTT: 19.5 s
  Bas: 0.4%
  Eos: 1.2%
  Fbg: 284.6 mg/dL
  Hb: 14.9 g/dL
  Ht: 43.9%
  Lym: 77.8%
  MCH: 20.8 pg
  MCHC: 33.9%
  MCV: 61.2 fL
  Mono: 2%
  Neu: 18.6%
  PT: 13.4 s
  Plat: 127.4 x10_4/uL
  RBC: 719 x10_4/ul
  Ret: 4.4%
  WBC: 99.3 x10_2/uL
  KIDNEY_L: 1.2 g
  KIDNEY_R: 1.2 g
  KIDNEY_TOTAL: 2.4 g
  LIVER: 14.3 g
  A/G: 0.8
  ALP: 1703.8 IU/L
  ALT: 42 IU/L
  AST: 73.8 IU/L
  BUN: 17.2 mg/dL
  CRE: 0.2 mg/dL
  Ca: 10.8 mg/dL
  Cl: 107.2 meq/L
  DBIL: 0.004 mg/dL
  GLC: 208.2 mg/dL
  IP: 6.8 mg/dL
  K: 3.9 meq/L
  LDH: 98.8 IU/L
  Na: 145.6 meq/L
  PL: 164.6 mg/dL
  RALB: 2.7 g/dL
  TBIL: 0.042 mg/dL
  TC: 80.8 mg/dL
  TG: 128.8 mg/dL
  TP: 6 g/dL
  gamma-GTP: 1 IU/L
[4]
  TERMINAL_BW: 429.2 g
  APTT: 17.5 s
  Bas: 0%
  Eos: 1.2%
  Fbg: 265.2 mg/dL
  Hb: 15.4 g/dL
  Ht: 44.4%
  Lym: 78.4%
  MCH: 19.8 pg
  MCHC: 34.8%
  MCV: 57.1 fL
  Mono: 1.6%
  Neu: 18.2%
  PT: 13.7 s
  Plat: 109.9 x10_4/uL
  RBC: 778.2 x10_4/ul
  Ret: 2.6%
  WBC: 114 x10_2/uL
  KIDNEY_L: 1.5 g
  KIDNEY_R: 1.5 g
  KIDNEY_TOTAL: 2.9 g
  LIVER: 16.8 g
  A/G: 0.8
  ALP: 1156.4 IU/L
  ALT: 35 IU/L
  AST: 62.6 IU/L
  BUN: 15 mg/dL
  CRE: 0.2 mg/dL
  Ca: 10.8 mg/dL
  Cl: 105.6 meq/L
  DBIL: 0.004 mg/dL
  GLC: 183.8 mg/dL
  IP: 6 mg/dL
  K: 4 meq/L
  LDH: 64.2 IU/L
  Na: 142.6 meq/L
  PL: 159.8 mg/dL
  RALB: 2.8 g/dL
  TBIL: 0.048 mg/dL
  TC: 73.6 mg/dL
  TG: 188.4 mg/dL
  TP: 6.3 g/dL
  gamma-GTP: 1 IU/L
[5]
  TERMINAL_BW: 239.4 g
  APTT: 17.8 s
  Bas: 0%
  Eos: 1%
  Fbg: 290.4 mg/dL
  Hb: 13.8 g/dL
  Ht: 41%
  Lym: 74.8%
  MCH: 21.2 pg
  MCHC: 33.6%
  MCV: 63.2 fL
  Mono: 3%
  Neu: 20.8%
  PT: 13 s
  Plat: 127.3 x10_4/uL
  RBC: 649 x10_4/ul
  Ret: 6.9%
  WBC: 101.6 x10_2/uL
  KIDNEY_L: 1 g
  KIDNEY_R: 1 g
  KIDNEY_TOTAL: 2 g
  LIVER: 11.2 g
  A/G: 0.9
  ALP: 1701.8 IU/L
  ALT: 40.4 IU/L
  AST: 73.8 IU/L
  BUN: 15.2 mg/dL
  CRE: 0.2 mg/dL
  Ca: 11.1 mg/dL
  Cl: 106.4 meq/L
  DBIL: 0.008 mg/dL
  GLC: 178.4 mg/dL
  IP: 6.8 mg/dL
  K: 4.7 meq/L
  LDH: 87.2 IU/L
  Na: 141.6 meq/L
  PL: 166 mg/dL
  RALB: 2.6 g/dL
  TBIL: 0.05 mg/dL
  TC: 83 mg/dL
  TG: 123.8 mg/dL
  TP: 5.7 g/dL
  gamma-GTP: 1 IU/L
[6]
  TERMINAL_BW: 283.2 g
  APTT: 18.9 s
  Bas: 0%
  Eos: 1.2%
  Fbg: 255.8 mg/dL
  Hb: 13.9 g/dL
  Ht: 41.1%
  Lym: 74.6%
  MCH: 21.1 pg
  MCHC: 33.9%
  MCV: 62.2 fL
  Mono: 2.2%
  Neu: 21.8%
  PT: 13.7 s
  Plat: 137 x10_4/uL
  RBC: 660.4 x10_4/ul
  Ret: 5.5%
  WBC: 92.6 x10_2/uL
  KIDNEY_L: 1.2 g
  KIDNEY_R: 1.2 g
  KIDNEY_TOTAL: 2.4 g
  LIVER: 13.1 g
  A/G: 0.8
  ALP: 1932.2 IU/L
  ALT: 44.4 IU/L
  AST: 76.8 IU/L
  BUN: 16.6 mg/dL
  CRE: 0.2 mg/dL
  Ca: 10.9 mg/dL
  Cl: 105.4 meq/L
  DBIL: 0.006 mg/dL
  GLC: 187.8 mg/dL
  IP: 7 mg/dL
  K: 4.2 meq/L
  LDH: 79.6 IU/L
  Na: 143 meq/L
  PL: 158 mg/dL
  RALB: 2.6 g/dL
  TBIL: 0.046 mg/dL
  TC: 75 mg/dL
  TG: 113.6 mg/dL
  TP: 5.8 g/dL
  gamma-GTP: 1.2 IU/L
[7]
  TERMINAL_BW: 331.1 g
  APTT: 21.8 s
  Bas: 0.2%
  Eos: 1%
  Fbg: 271.2 mg/dL
  Hb: 14.9 g/dL
  Ht: 43.7%
  Lym: 76%
  MCH: 20.9 pg
  MCHC: 34.2%
  MCV: 61.3 fL
  Mono: 2.2%
  Neu: 20.6%
  PT: 13.4 s
  Plat: 118 x10_4/uL
  RBC: 712.8 x10_4/ul
  Ret: 4.1%
  WBC: 104.6 x10_2/uL
  KIDNEY_L: 1.3 g
  KIDNEY_R: 1.3 g
  KIDNEY_TOTAL: 2.6 g
  LIVER: 13.8 g
  A/G: 0.8
  ALP: 1421.4 IU/L
  ALT: 40.4 IU/L
  AST: 71.2 IU/L
  BUN: 16.2 mg/dL
  CRE: 0.2 mg/dL
  Ca: 10.7 mg/dL
  Cl: 105.2 meq/L
  DBIL: 0.002 mg/dL
  GLC: 182.6 mg/dL
  IP: 6.9 mg/dL
  K: 4.3 meq/L
  LDH: 131.4 IU/L
  Na: 144.4 meq/L
  PL: 159 mg/dL
  RALB: 2.7 g/dL
  TBIL: 0.04 mg/dL
  TC: 72.4 mg/dL
  TG: 112.8 mg/dL
  TP: 6 g/dL
  gamma-GTP: 1 IU/L
[8]
  TERMINAL_BW: 426.4 g
  APTT: 19.5 s
  Bas: 0.4%
  Eos: 1.4%
  Fbg: 257.6 mg/dL
  Hb: 15.7 g/dL
  Ht: 45.3%
  Lym: 80.2%
  MCH: 19.8 pg
  MCHC: 34.6%
  MCV: 57.3 fL
  Mono: 2%
  Neu: 15.4%
  PT: 13.9 s
  Plat: 108.7 x10_4/uL
  RBC: 789.4 x10_4/ul
  Ret: 2.4%
  WBC: 118.6 x10_2/uL
  KIDNEY_L: 1.5 g
  KIDNEY_R: 1.5 g
  KIDNEY_TOTAL: 3 g
  LIVER: 16.2 g
  A/G: 0.8
  ALP: 1126.4 IU/L
  ALT: 33.8 IU/L
  AST: 63.8 IU/L
  BUN: 16.6 mg/dL
  CRE: 0.3 mg/dL
  Ca: 10.7 mg/dL
  Cl: 104 meq/L
  DBIL: 0.006 mg/dL
  GLC: 180.2 mg/dL
  IP: 5.3 mg/dL
  K: 4.3 meq/L
  LDH: 69.8 IU/L
  Na: 142 meq/L
  PL: 162 mg/dL
  RALB: 2.8 g/dL
  TBIL: 0.042 mg/dL
  TC: 73.6 mg/dL
  TG: 186.6 mg/dL
  TP: 6.2 g/dL
  gamma-GTP: 1.2 IU/L
